According to US20070043034A1, “Chlorine Ion Uptake Modulators and Uses Thereof” (priority 2005, published 2007):

Test system: low-Mg^2+ induced recurrent seizures in the intact hippocampus
Assay: Low-Mg2+ ACSF induced recurrent seizures in the intact hippocampus in vitro
Format: cell-based, rat
Settings: phenobarbital 100 μM, bumetanide 10 μM or both, 120 min application; intact hippocampus of P4-6 rats
Source text: High expression level of the Na^+ K^+-2Cl^− (NKCCl) co-transporter in immature neurons causes the accumulation of chloride ions and a depolarized Cl^− equilibrium potential (ECl). This is linked to a higher seizure propensity and poor EEG response in neonates to the barbiturates and benzodiazepines, conventional anticonvulsant drugs that target Cl^−-permeable GABAA-receptor (GABAA-R) operated channels. […] Recurrent ictal-like seizures were induced by low-Mg^+ ACSF in intact hippocampal preparations in vitro. […] Bumetanide decreased both seizure frequency and seizure power.
FIGS. 11A-11C are graphs of low-Mg^2+πinduced recurrent seizures in the intact hippocampus in vitro. […] First and last seizures from 5 hour recording are shown on an expanded time scale. Right, corresponding power spectra in the 0.1-1000 Hz frequency band. […] Summary data are taken from ten hippocampi. […] Power of the first seizure in each recording was considered as 100%. Data are taken from 18 recordings in 10 preparations from P4-6 rats.
FIGS. 12A-12C are graphs showing low efficiency of phenobarbital in neonatal seizures. FIG. 12A is a graph showing extracellular field potential recording in the CA3 pyramidal cell layer in the intact hippocampus of a P5 rat. Continuous application of low-Mg^2+ ACSF induced recurrent tonic-clonic seizures. […] The right portion corresponds to power spectra in the 0.1-1000 Hz frequency range. […] Data are from ten experiments that were combined. FIG. 12C is a graph showing power of recurrent seizures before, during and after phenobarbital application. Power of the first seizure in each recording was considered as 100%. Seizures were not depressed by phenobarbital indicating its low efficiency.
FIGS. 13A-13C are graphs showing that alteration of Cl^−-transport by bumetanide enhanced efficacy of phenobarbital in neonatal seizures. FIG. 13A is a graph of extracellular field potential recording in the CA3 pyramidal cell layer in the intact hippocampus of a P5 rat. Application of low-Mg^2+ ACSF induced recurrent seizures. […] These are shown on an expanded time scale. The right portion of FIG. 13A is a power spectra of extracellular field potential activity before and during application of drugs. FIG. 13B is a graph showing inter-seizure intervals before, during and after application of drugs. In 75% of experiments seizures were abolished (ISI>120 min) by simultaneous application of phenobarbital and bumetanide. FIG. 13C is a graph showing power of recurrent seizures before, during and after simultaneous application of phenobarbital and bumetanide. Power of the first seizure in each recording was considered as 100%. Seizures were depressed by combination of drugs.
FIGS. 14A and 14B are graphs showing alteration of Cl^−-transport for early-life seizure therapy. […]

Compound: CCCCNc1cc(C(=O)O)cc(S(N)(=O)=O)c1Oc1ccccc1 [bumetanide, 3-(aminosulfonyl)-5-(butylamino)-4-phenoxybenzoic acid]
- seizure frequency: decreased
- seizure power: decreased
